According to ChEMBL document CHEMBL4028801, “A multifactorial approach to hepatobiliary transporter assessment enables improved therapeutic compound development” (Toxicol Sci, 2013):
Where a name gives a salt, the structure may show the parent alone.

What was measured:
[1] = target: ATP-binding cassette sub-family C member 3 (Homo sapiens, UniProt O15438); assay: Inhibition of human MRP3 overexpressed in Sf9 insect cell membrane vesicles assessed as uptake of [3H]-estradiol-17beta-D-glucuronide in presence of ATP and GSH measured after 10 mins by membrane vesicle transport assay; format: ADME, cell-based
[2] = target: T1, ATP-binding cassette sub-family C member 4 (Homo sapiens, UniProt O15439); assay: Inhibition of human MRP4 overexpressed in Sf9 cell membrane vesicles assessed as uptake of [3H]-estradiol-17beta-D-glucuronide in presence of ATP and GSH measured after 20 mins by membrane vesicle transport assay; format: ADME, cell-based
T1 sequence (O15439 whole entry): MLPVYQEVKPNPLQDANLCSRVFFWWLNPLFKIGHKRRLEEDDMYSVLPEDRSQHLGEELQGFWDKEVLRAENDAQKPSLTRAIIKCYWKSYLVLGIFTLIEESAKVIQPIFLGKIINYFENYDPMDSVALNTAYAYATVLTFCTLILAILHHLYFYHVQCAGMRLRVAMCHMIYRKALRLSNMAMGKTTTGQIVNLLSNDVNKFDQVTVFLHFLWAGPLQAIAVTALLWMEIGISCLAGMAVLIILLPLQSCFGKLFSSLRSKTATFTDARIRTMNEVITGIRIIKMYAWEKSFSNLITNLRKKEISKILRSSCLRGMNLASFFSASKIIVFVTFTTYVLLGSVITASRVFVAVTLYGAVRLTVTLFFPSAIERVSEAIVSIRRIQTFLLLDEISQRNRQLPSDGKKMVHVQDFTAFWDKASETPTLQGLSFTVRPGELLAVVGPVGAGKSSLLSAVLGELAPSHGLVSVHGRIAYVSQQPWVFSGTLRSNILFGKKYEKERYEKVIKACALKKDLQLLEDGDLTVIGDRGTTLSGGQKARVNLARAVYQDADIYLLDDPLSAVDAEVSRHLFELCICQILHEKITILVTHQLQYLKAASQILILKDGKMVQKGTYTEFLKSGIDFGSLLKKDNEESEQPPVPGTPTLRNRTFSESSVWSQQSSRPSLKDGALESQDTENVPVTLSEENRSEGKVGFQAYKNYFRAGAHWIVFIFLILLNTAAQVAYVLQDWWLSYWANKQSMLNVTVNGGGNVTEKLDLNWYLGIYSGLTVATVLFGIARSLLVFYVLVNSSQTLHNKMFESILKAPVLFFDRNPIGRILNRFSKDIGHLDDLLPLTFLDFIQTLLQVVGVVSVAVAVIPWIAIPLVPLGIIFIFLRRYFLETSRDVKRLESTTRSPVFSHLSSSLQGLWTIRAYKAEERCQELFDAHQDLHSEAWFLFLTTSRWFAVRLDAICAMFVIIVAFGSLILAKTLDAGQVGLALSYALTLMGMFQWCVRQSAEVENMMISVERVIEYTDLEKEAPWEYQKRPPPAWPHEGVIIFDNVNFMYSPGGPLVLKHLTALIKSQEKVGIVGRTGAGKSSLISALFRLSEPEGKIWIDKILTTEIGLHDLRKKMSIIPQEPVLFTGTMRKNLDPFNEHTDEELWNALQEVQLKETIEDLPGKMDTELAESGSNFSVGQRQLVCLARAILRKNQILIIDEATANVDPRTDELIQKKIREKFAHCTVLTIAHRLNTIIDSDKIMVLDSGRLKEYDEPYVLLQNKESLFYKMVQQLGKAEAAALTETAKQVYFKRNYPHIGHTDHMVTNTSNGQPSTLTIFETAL

[3] = target: ATP-binding cassette sub-family C member 2 (Homo sapiens, UniProt Q92887); assay: Inhibition of human MRP2 overexpressed in Sf9 cell membrane vesicles assessed as uptake of [3H]-estradiol-17beta-D-glucuronide in presence of ATP and GSH measured after 20 mins by membrane vesicle transport assay
Bile salt export pump = Bile salt export pump (Homo sapiens, UniProt O95342); assay: Inhibition of human BSEP overexpressed in Sf9 cell membrane vesicles assessed as uptake of [3H]-taurocholate in presence of ATP measured after 15 to 20 mins by membrane vesicle transport assay; format: ADME, cell-based
Bile salt export pump, sequence (O95342 whole entry): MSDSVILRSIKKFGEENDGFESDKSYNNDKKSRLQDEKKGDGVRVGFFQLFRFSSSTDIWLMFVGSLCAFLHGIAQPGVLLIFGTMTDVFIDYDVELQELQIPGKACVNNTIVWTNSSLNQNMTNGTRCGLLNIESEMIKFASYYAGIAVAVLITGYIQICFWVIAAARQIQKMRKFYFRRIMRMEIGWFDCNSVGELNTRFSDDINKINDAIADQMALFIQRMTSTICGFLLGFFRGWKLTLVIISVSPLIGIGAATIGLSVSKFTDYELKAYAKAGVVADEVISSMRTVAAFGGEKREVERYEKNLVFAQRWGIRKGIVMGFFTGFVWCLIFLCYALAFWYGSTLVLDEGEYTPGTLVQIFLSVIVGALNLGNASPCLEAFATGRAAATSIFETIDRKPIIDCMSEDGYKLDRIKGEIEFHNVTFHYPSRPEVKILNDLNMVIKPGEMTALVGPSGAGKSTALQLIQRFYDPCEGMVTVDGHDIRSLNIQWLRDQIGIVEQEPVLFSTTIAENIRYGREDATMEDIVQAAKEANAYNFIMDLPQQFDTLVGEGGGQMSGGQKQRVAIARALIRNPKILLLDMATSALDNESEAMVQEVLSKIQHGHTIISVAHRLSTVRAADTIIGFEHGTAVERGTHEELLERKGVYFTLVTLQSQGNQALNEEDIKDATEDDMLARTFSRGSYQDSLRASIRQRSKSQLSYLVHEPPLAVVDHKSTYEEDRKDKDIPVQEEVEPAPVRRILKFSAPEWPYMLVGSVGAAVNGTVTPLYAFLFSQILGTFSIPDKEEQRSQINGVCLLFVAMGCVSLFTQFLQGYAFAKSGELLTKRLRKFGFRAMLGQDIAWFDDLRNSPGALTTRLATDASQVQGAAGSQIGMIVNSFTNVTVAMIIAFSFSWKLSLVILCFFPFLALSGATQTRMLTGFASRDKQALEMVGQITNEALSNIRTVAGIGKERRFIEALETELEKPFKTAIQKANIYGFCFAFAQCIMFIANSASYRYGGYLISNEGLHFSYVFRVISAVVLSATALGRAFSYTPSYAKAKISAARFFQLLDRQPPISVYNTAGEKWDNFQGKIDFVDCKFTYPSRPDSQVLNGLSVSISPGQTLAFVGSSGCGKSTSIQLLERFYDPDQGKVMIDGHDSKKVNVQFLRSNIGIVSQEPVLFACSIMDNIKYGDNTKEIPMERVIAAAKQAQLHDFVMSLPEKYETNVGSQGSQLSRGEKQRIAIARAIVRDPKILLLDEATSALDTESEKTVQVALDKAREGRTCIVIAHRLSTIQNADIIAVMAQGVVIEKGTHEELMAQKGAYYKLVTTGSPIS

ATP-binding cassette sub-family C member 2, sequence (Q92887 whole entry): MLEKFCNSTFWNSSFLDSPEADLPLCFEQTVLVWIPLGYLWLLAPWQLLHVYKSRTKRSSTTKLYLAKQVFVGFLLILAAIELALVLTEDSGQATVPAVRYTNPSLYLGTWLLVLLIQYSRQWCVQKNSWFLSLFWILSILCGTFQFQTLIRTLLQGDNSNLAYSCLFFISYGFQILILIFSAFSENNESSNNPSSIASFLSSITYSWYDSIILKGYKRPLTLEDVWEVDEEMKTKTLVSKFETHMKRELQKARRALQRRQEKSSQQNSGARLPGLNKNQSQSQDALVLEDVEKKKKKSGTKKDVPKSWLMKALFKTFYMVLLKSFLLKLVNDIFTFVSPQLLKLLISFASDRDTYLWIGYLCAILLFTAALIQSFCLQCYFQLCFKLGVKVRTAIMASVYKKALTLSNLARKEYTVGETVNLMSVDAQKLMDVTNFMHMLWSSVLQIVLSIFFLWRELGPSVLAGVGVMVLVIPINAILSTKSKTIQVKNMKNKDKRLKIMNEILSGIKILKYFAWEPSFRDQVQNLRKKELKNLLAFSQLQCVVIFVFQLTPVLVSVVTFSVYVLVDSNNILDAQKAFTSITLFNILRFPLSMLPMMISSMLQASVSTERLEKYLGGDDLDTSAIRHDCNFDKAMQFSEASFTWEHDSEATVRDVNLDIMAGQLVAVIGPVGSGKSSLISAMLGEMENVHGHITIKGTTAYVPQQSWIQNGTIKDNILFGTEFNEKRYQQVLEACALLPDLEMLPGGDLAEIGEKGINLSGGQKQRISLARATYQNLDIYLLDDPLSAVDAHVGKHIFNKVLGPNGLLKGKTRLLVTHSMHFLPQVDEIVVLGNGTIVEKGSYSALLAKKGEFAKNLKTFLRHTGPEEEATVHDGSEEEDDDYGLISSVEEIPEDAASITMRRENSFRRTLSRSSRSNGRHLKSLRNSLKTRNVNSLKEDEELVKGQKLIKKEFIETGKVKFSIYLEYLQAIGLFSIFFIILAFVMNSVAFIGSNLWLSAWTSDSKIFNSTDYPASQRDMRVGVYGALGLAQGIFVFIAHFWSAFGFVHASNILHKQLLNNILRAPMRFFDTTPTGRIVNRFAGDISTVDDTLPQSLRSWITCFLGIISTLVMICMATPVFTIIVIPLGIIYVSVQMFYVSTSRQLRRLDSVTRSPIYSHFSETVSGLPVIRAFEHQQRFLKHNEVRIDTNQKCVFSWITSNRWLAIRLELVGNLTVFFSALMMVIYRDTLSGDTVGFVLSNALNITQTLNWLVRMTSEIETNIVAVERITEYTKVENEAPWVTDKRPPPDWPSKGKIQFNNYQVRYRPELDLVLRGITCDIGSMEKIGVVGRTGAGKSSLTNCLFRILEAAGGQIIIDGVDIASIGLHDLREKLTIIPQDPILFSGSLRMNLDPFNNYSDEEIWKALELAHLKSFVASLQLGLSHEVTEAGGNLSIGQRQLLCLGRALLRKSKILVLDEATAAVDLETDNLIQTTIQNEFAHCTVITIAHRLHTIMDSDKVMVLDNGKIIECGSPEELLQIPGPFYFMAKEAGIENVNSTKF
ATP-binding cassette sub-family C member 3, sequence (O15438 whole entry): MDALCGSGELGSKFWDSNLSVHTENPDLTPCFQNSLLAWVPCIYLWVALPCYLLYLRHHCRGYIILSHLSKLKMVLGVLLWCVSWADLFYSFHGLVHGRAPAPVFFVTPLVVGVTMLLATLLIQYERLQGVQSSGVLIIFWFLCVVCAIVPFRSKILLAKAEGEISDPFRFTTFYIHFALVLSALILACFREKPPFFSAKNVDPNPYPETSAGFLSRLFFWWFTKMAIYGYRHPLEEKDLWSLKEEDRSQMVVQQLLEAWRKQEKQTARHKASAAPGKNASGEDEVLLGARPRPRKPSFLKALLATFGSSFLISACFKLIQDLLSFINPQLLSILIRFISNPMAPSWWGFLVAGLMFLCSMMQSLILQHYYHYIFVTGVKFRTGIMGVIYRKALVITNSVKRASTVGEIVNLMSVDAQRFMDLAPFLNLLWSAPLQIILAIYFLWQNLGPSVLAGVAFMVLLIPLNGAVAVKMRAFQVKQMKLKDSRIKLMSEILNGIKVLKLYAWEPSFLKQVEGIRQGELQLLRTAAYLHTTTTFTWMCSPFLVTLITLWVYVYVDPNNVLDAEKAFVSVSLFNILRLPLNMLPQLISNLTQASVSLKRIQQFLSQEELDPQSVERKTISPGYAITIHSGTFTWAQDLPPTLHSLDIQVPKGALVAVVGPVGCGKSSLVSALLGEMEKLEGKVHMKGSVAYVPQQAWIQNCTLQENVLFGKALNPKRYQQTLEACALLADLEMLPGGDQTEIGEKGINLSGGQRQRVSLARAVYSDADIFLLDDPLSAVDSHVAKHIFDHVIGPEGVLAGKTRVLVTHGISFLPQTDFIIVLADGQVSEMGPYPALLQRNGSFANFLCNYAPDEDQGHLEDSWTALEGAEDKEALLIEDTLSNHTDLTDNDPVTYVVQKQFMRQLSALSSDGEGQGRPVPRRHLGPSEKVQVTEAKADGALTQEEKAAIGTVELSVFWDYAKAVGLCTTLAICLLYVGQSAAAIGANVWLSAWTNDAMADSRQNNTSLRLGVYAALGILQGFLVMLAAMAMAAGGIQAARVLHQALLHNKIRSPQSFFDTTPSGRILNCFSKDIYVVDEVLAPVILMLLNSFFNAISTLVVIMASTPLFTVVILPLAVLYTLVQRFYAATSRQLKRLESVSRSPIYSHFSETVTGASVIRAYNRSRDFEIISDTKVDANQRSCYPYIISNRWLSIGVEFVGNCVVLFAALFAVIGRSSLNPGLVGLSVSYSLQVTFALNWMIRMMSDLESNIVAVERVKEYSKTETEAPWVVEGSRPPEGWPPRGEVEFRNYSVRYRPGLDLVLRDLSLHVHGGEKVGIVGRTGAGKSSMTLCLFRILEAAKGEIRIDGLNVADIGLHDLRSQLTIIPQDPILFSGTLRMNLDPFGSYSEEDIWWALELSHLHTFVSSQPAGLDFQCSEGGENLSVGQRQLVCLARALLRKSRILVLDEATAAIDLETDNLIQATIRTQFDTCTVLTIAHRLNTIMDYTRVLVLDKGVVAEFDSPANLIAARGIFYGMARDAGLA

SMILES | IC50 [1] [µM] | IC50 [2] [µM] | IC50 [3] [µM] | IC50 (Bile salt export pump) [µM]
O=C(NC1CCN(CCc2c[nH]c3ccccc23)CC1)c1ccccc1 [INDORAMIN] | > 133 | > 133 | > 133 | > 133
CN1CCc2cccc3c2[C@H]1Cc1ccc(O)c(O)c1-3 [APOMORPHINE] | > 133 | > 133 | > 133 | > 133
CCN(CC)CCNC(=O)c1cc(Cl)c(N)cc1OC [METOCLOPRAMIDE] | > 133 | > 133 | > 133 | > 133
NCC[C@H](O)C(=O)N[C@@H]1C[C@H](N)[C@@H](O[C@H]2O[C@H](CN)[C@@H](O)[C@H](O)[C@H]2O)[C@H](O)[C@H]1O[C@H]1O[C@H](CO)[C@@H](O)[C@H](N)[C@H]1O [AMIKACIN] | > 133 | > 133 | > 133 | > 133
COC(=O)[C@H](c1ccccc1Cl)N1CCc2sccc2C1 [CLOPIDOGREL BISULFATE] | > 133 | > 133 | > 133 | 72
O=C(c1ccc(F)cc1)C1CCN(CCn2c(=O)[nH]c3ccccc3c2=O)CC1 [KETANSERIN] | > 133 | > 133 | > 133 | > 133
OCC(CO)N[C@H]1C[C@](O)(CO)[C@@H](O)[C@H](O)[C@H]1O [VOGLIBOSE] | > 133 | > 133 | > 133 | > 133
COc1cccc2c1C(=O)c1c(O)c3c(c(O)c1C2=O)C[C@@](O)(C(=O)CO)C[C@@H]3O[C@H]1C[C@H](N)[C@H](O)[C@H](C)O1 [DOXORUBICIN] | > 133 | 19 | > 133 | > 133
C=CC[N+]1([C@H]2C[C@H]3[C@@H]4CC[C@H]5C[C@H](O)[C@@H](N6CCOCC6)C[C@]5(C)[C@H]4CC[C@]3(C)[C@H]2OC(C)=O)CCCC1 [ROCURONIUM BROMIDE] | > 133 | > 133 | > 133 | > 133
CC(SC(=O)c1cccs1)C(=O)NCC(=O)O (stereo not drawn) [STEPRONIN] | > 133 | > 133 | > 133 | > 133
CC(=O)O[C@H]1C[C@@H]2CC[C@@H]3[C@H](CC[C@@]4(C)[C@H]3C[C@H]([N+]3(C)CCCCC3)[C@@H]4OC(C)=O)[C@@]2(C)C[C@@H]1N1CCCCC1 [VECURONIUM BROMIDE] | > 133 | > 133 | > 133 | > 133
Cc1nnc(C(C)C)n1[C@@H]1C[C@H]2CC[C@@H](C1)N2CC[C@H](NC(=O)C1CCC(F)(F)CC1)c1ccccc1 [MARAVIROC] | > 133 | > 133 | > 133 | 110
CS(=O)(=O)Nc1ccc([N+](=O)[O-])cc1Oc1ccccc1 [NIMESULIDE] | > 133 | > 133 | > 133 | > 133
C[C@@H]1CC[C@H]2[C@@H](C)C(=O)O[C@@H]3O[C@@]4(C)CC[C@@H]1[C@]32OO4 [ARTEMISININ] | > 133 | > 133 | > 133 | > 133
CCN(CCO)CCCC(C)Nc1ccnc2cc(Cl)ccc12 (stereo not drawn) [HYDROXYCHLOROQUINE SULFATE] | > 133 | > 133 | > 133 | > 133
CN1CC(=O)N2[C@H](c3ccc4c(c3)OCO4)c3[nH]c4ccccc4c3C[C@@H]2C1=O | > 133 | > 133 | > 133 | > 133
COc1ccc2[nH]cc(CCNC(C)=O)c2c1 [MELATONIN] | > 133 | > 133 | > 133 | > 133
CN(C/C=C/C#CC(C)(C)C)Cc1cccc2ccccc12 [TERBINAFINE HYDROCHLORIDE] | > 133 | > 133 | > 133 | > 133
C[C@H](CS)C(=O)N1CCC[C@H]1C(=O)O [CAPTOPRIL] | > 133 | > 133 | > 133 | > 133

SMILES | IC50 [1] [µM] | IC50 [2] [µM] | IC50 [3] [µM] | IC50 (Bile salt export pump) [µM]
CC(C(=O)O)c1ccc2c(c1)Cc1cccnc1O2 (stereo not drawn) [PRANOPROFEN] | > 133 | 9.8 | > 133 | > 133
CC(C)Cn1cnc2c(N)nc3ccccc3c21 [IMIQUIMOD] | > 133 | > 133 | > 133 | > 133
C[C@H]1COc2c(C3(N)CC3)c(F)cc3c(=O)c(C(=O)O)cn1c23 [PAZUFLOXACIN] | > 133 | > 133 | > 133 | > 133
NC(=O)c1ncn([C@@H]2O[C@H](CO)[C@@H](O)[C@H]2O)n1 [RIBAVIRIN] | > 133 | > 133 | > 133 | > 133
COc1ccc(C(CN(C)C)C2(O)CCCCC2)cc1 (stereo not drawn) [VENLAFAXINE] | > 133 | > 133 | > 133 | > 133
CCNC(=O)[C@@H]1CCCN1C(=O)[C@H](CCCNC(=N)N)NC(=O)[C@H](CC(C)C)NC(=O)[C@@H](CC(C)C)NC(=O)[C@H](Cc1ccc(O)cc1)NC(=O)[C@H](CO)NC(=O)[C@H](Cc1c[nH]c2ccccc12)NC(=O)[C@H](Cc1c[nH]cn1)NC(=O)[C@@H]1CCC(=O)N1 [LEUPROLIDE ACETATE] | > 133 | > 133 | 80.2 | > 133
NC(=O)c1cnccn1 [PYRAZINAMIDE] | > 133 | > 133 | > 133 | > 133
O=S(=O)(O)CCS [MESNA] | > 133 | > 133 | > 133 | > 133
CO/N=C1\CN(c2nc3c(cc2F)c(=O)c(C(=O)O)cn3C2CC2)CC1CN (stereo not drawn) [GEMIFLOXACIN MESYLATE] | > 133 | 73.2 | > 133 | > 133
CC(=O)CCCCn1c(=O)c2c(ncn2C)n(C)c1=O [PENTOXIFYLLINE] | > 133 | > 133 | > 133 | > 133
OCCN1C[C@H](O)[C@@H](O)[C@H](O)[C@H]1CO [MIGLITOL] | > 133 | > 133 | > 133 | > 133
CS(=O)(=O)OCCCCOS(C)(=O)=O [BUSULFAN] | > 133 | > 133 | > 133 | > 133
CC(c1cc2ccccc2s1)N(O)C(N)=O (stereo not drawn) [ZILEUTON] | > 133 | > 133 | > 133 | > 133
CCC1(c2ccc(N)cc2)CCC(=O)NC1=O (stereo not drawn) [AMINOGLUTETHIMIDE] | > 133 | > 133 | > 133 | > 133
NS(=O)(=O)Cc1noc2ccccc12 [ZONISAMIDE] | > 133 | > 133 | > 133 | > 133
CN(CCOc1ccc(NS(C)(=O)=O)cc1)CCc1ccc(NS(C)(=O)=O)cc1 [DOFETILIDE] | > 133 | > 133 | > 133 | > 133
CN1CCOC(c2ccccc2)c2ccccc2C1 (stereo not drawn) [NEFOPAM] | > 133 | > 133 | > 133 | > 133
CC(C)(C)c1ccc(C(=O)CCCN2CCC(OC(c3ccccc3)c3ccccc3)CC2)cc1 [EBASTINE] | > 133 | > 133 | > 133 | > 133
